From PubChem BioAssay (NCI)
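GI50 is the concentration that inhibits growth by half. TGI: concentration producing complete growth inhibition.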

Experiments:
Test in all cases: DTP human tumour cell line panel, 384-well format
786-0 renal = test system: 786-0 renal
NCI-H322M lung = test system: NCI-H322M lung
A498 renal = test system: A498 renal
SNB-19 CNS = test system: SNB-19 CNS
HT29 colon = test system: HT29 colon
UACC-62 melanoma = test system: UACC-62 melanoma
MDA-MB-468 breast = test system: MDA-MB-468 breast
LOX IMVI melanoma = test system: LOX IMVI melanoma
NCI-H522 lung = test system: NCI-H522 lung
PC-3 prostate = test system: PC-3 prostate
HS 578T breast = test system: HS 578T breast
MDA-MB-231 breast = test system: MDA-MB-231 breast
BT-549 breast = test system: BT-549 breast
CAKI-1 renal = test system: CAKI-1 renal
SW-620 colon = test system: SW-620 colon
SK-OV-3 ovarian = test system: SK-OV-3 ovarian
NCI-H460 NSCLC = test system: NCI-H460 NSCLC
OVCAR-3 ovarian = test system: OVCAR-3 ovarian
T-47D breast = test system: T-47D breast
U251 glioblastoma = test system: U251 glioblastoma
ACHN renal = test system: ACHN renal
HCC-2998 colon = test system: HCC-2998 colon
RXF 393 renal = test system: RXF 393 renal
MCF7 breast = test system: MCF7 breast
OVCAR-8 ovarian = test system: OVCAR-8 ovarian
COLO 205 colon = test system: COLO 205 colon
HCT-15 colon = test system: HCT-15 colon
NCI-H226 lung = test system: NCI-H226 lung
SNB-75 CNS = test system: SNB-75 CNS
NCI/ADR-RES ovarian = test system: NCI/ADR-RES ovarian
MALME-3M melanoma = test system: MALME-3M melanoma
HCT-116 colon = test system: HCT-116 colon
HOP-92 NSCLC = test system: HOP-92 NSCLC
SR leukemia = test system: SR leukemia
MDA-MB-435 melanoma = test system: MDA-MB-435 melanoma
SF-268 CNS = test system: SF-268 CNS
SF-295 CNS = test system: SF-295 CNS
DU-145 prostate = test system: DU-145 prostate
EKVX NSCLC = test system: EKVX NSCLC
IGROV1 ovarian = test system: IGROV1 ovarian
OVCAR-5 ovarian = test system: OVCAR-5 ovarian
HL-60(TB) leukemia = test system: HL-60(TB) leukemia
A549 NSCLC = test system: A549 NSCLC
TK-10 renal = test system: TK-10 renal
SN12C renal = test system: SN12C renal
M14 melanoma = test system: M14 melanoma
SK-MEL-2 melanoma = test system: SK-MEL-2 melanoma

Compound `C=CC(=O)Nc1cc(Nc2nccc(-c3cn(C)c4ccccc34)n2)c(OC)cc1N(C)CCN(C)C` has a GI50 (786-0 renal) of 1310 nM, a TGI (786-0 renal) of 2600 nM and a GI50 (NCI-H322M lung) of 179 nM. It also gave a TGI (NCI-H322M lung) of 1120 nM, a GI50 (A498 renal) of 1120 nM and a TGI (A498 renal) of 2530 nM. It also gave a GI50 (SNB-19 CNS) of 3020 nM, a TGI (SNB-19 CNS) of 8810 nM and a GI50 (HT29 colon) of 1610 nM. For the same compound, the TGI (HT29 colon) was 2990 nM, the GI50 (UACC-62 melanoma) was 1640 nM and the TGI (UACC-62 melanoma) was 3020 nM. For the same compound, the GI50 (MDA-MB-468 breast) was 37.8 nM, the TGI (MDA-MB-468 breast) was 189 nM and the GI50 (LOX IMVI melanoma) was 2060 nM. The TGI (LOX IMVI melanoma) was 3500 nM, the GI50 (NCI-H522 lung) was 49.5 nM and the TGI (NCI-H522 lung) was 843 nM. It also gave a GI50 (PC-3 prostate) of 1610 nM, a TGI (PC-3 prostate) of 3090 nM and a GI50 (HS 578T breast) of 1550 nM. The TGI (HS 578T breast) was 3040 nM, the GI50 (MDA-MB-231 breast) was 1790 nM and the TGI (MDA-MB-231 breast) was 3210 nM. For the same compound, the GI50 (BT-549 breast) was 1330 nM, the TGI (BT-549 breast) was 2620 nM and the GI50 (CAKI-1 renal) was 703 nM. The TGI (CAKI-1 renal) was 2080 nM, the GI50 (SW-620 colon) was 1760 nM and the TGI (SW-620 colon) was 3180 nM. For the same compound, the GI50 (SK-OV-3 ovarian) was 1740 nM, the TGI (SK-OV-3 ovarian) was 5730 nM and the GI50 (NCI-H460 NSCLC) was 1760 nM. It also gave a TGI (NCI-H460 NSCLC) of 3190 nM, a GI50 (OVCAR-3 ovarian) of 1130 nM and a TGI (OVCAR-3 ovarian) of 2460 nM. It also gave a GI50 (T-47D breast) of 957 nM, a TGI (T-47D breast) of 2380 nM and a GI50 (U251 glioblastoma) of 1800 nM. For the same compound, the TGI (U251 glioblastoma) was 3250 nM, the GI50 (ACHN renal) was 453 nM and the TGI (ACHN renal) was 2210 nM. For the same compound, the GI50 (HCC-2998 colon) was 767 nM, the TGI (HCC-2998 colon) was 2000 nM and the GI50 (RXF 393 renal) was 806 nM. The TGI (RXF 393 renal) was 2150 nM, the GI50 (MCF7 breast) was 1180 nM and the TGI (MCF7 breast) was 2580 nM. The GI50 (OVCAR-8 ovarian) was 1420 nM, the TGI (OVCAR-8 ovarian) was 2760 nM and the GI50 (COLO 205 colon) was 1590 nM. It also gave a TGI (COLO 205 colon) of 2950 nM, a GI50 (HCT-15 colon) of 1250 nM and a TGI (HCT-15 colon) of 2600 nM. The GI50 (NCI-H226 lung) was 863 nM, the TGI (NCI-H226 lung) was 2200 nM and the GI50 (SNB-75 CNS) was 2710 nM. The TGI (SNB-75 CNS) was 6410 nM, the GI50 (NCI/ADR-RES ovarian) was 1130 nM and the TGI (NCI/ADR-RES ovarian) was 2370 nM. It also gave a GI50 (MALME-3M melanoma) of 1150 nM, a TGI (MALME-3M melanoma) of 2540 nM and a GI50 (HCT-116 colon) of 1610 nM. For the same compound, the TGI (HCT-116 colon) was 3020 nM, the GI50 (HOP-92 NSCLC) was 1150 nM and the TGI (HOP-92 NSCLC) was 2380 nM. The GI50 (SR leukemia) was 602 nM, the TGI (SR leukemia) was 1290 nM and the GI50 (MDA-MB-435 melanoma) was 2000 nM. It also gave a TGI (MDA-MB-435 melanoma) of 3550 nM, a GI50 (SF-268 CNS) of 1490 nM and a TGI (SF-268 CNS) of 3230 nM. The GI50 (SF-295 CNS) was 2620 nM, the TGI (SF-295 CNS) was 6330 nM and the GI50 (DU-145 prostate) was 1140 nM. For the same compound, the TGI (DU-145 prostate) was 2610 nM, the GI50 (EKVX NSCLC) was 617 nM and the TGI (EKVX NSCLC) was 2170 nM. The GI50 (IGROV1 ovarian) was 440 nM, the TGI (IGROV1 ovarian) was 1880 nM and the GI50 (OVCAR-5 ovarian) was 1620 nM. It also gave a TGI (OVCAR-5 ovarian) of 3930 nM, a GI50 (HL-60(TB) leukemia) of 756 nM and a TGI (HL-60(TB) leukemia) of 1940 nM. For the same compound, the GI50 (A549 NSCLC) was 1340 nM, the TGI (A549 NSCLC) was 3590 nM and the GI50 (TK-10 renal) was 317 nM. It also gave a TGI (TK-10 renal) of 1770 nM, a GI50 (SN12C renal) of 1330 nM and a TGI (SN12C renal) of 3130 nM. For the same compound, the GI50 (M14 melanoma) was 1960 nM, the TGI (M14 melanoma) was 3390 nM and the GI50 (SK-MEL-2 melanoma) was 354 nM. The TGI (SK-MEL-2 melanoma) was 1200 nM.

Work on `Cn1cc(-c2cc3c(N4CCN(c5ncc([C@@](C)(N)c6ccc(F)cc6)cn5)CC4)ncnn3c2)cn1` yielded a GI50 (786-0 renal) of 1760 nM, a TGI (786-0 renal) of 3370 nM and a GI50 (NCI-H322M lung) of 6680 nM. It also gave a TGI (NCI-H322M lung) of 21500 nM, a GI50 (A498 renal) of 3120 nM and a TGI (A498 renal) of 9790 nM. It also gave a GI50 (SNB-19 CNS) of 5930 nM, a TGI (SNB-19 CNS) of 24400 nM and a GI50 (HT29 colon) of 2650 nM. For the same compound, the TGI (HT29 colon) was > 26200 nM, the GI50 (UACC-62 melanoma) was 4420 nM and the TGI (UACC-62 melanoma) was 17800 nM. The GI50 (MDA-MB-468 breast) was 1120 nM, the TGI (MDA-MB-468 breast) was 3030 nM and the GI50 (LOX IMVI melanoma) was 881 nM. For the same compound, the TGI (LOX IMVI melanoma) was 3470 nM, the GI50 (NCI-H522 lung) was 2410 nM and the TGI (NCI-H522 lung) was 23300 nM. It also gave a GI50 (PC-3 prostate) of 2860 nM, a TGI (PC-3 prostate) of 13900 nM and a GI50 (HS 578T breast) of 1750 nM. For the same compound, the TGI (HS 578T breast) was 5830 nM, the GI50 (MDA-MB-231 breast) was 3470 nM and the TGI (MDA-MB-231 breast) was > 35400 nM. It also gave a GI50 (BT-549 breast) of 2520 nM, a TGI (BT-549 breast) of 7850 nM and a GI50 (CAKI-1 renal) of 3710 nM. It also gave a TGI (CAKI-1 renal) of 17600 nM, a GI50 (SW-620 colon) of 2970 nM and a TGI (SW-620 colon) of 11500 nM. It also gave a GI50 (SK-OV-3 ovarian) of 7900 nM, a TGI (SK-OV-3 ovarian) of 52700 nM and a GI50 (NCI-H460 NSCLC) of 3730 nM. For the same compound, the TGI (NCI-H460 NSCLC) was 12500 nM, the GI50 (OVCAR-3 ovarian) was 6110 nM and the TGI (OVCAR-3 ovarian) was 18000 nM. It also gave a GI50 (T-47D breast) of 1490 nM, a TGI (T-47D breast) of 6160 nM and a GI50 (U251 glioblastoma) of 3540 nM. The TGI (U251 glioblastoma) was 25100 nM, the GI50 (ACHN renal) was 3700 nM and the TGI (ACHN renal) was 13900 nM. The GI50 (HCC-2998 colon) was 2150 nM, the TGI (HCC-2998 colon) was 3820 nM and the GI50 (RXF 393 renal) was 1030 nM. The TGI (RXF 393 renal) was 3020 nM, the GI50 (MCF7 breast) was 2310 nM and the TGI (MCF7 breast) was 8700 nM. The GI50 (OVCAR-8 ovarian) was 4070 nM, the TGI (OVCAR-8 ovarian) was > 50800 nM and the GI50 (COLO 205 colon) was 2730 nM. The TGI (COLO 205 colon) was 6510 nM, the GI50 (HCT-15 colon) was 2970 nM and the TGI (HCT-15 colon) was 20200 nM. For the same compound, the GI50 (NCI-H226 lung) was 3510 nM, the TGI (NCI-H226 lung) was 28200 nM and the GI50 (SNB-75 CNS) was 2160 nM. For the same compound, the TGI (SNB-75 CNS) was 7030 nM, the GI50 (NCI/ADR-RES ovarian) was 3190 nM and the TGI (NCI/ADR-RES ovarian) was 17900 nM. For the same compound, the GI50 (MALME-3M melanoma) was 2460 nM, the TGI (MALME-3M melanoma) was 5790 nM and the GI50 (HCT-116 colon) was 3390 nM. It also gave a TGI (HCT-116 colon) of 12300 nM, a GI50 (HOP-92 NSCLC) of 2660 nM and a TGI (HOP-92 NSCLC) of 10200 nM. The GI50 (SR leukemia) was 1580 nM, the TGI (SR leukemia) was 3020 nM and the GI50 (MDA-MB-435 melanoma) was 7130 nM. The TGI (MDA-MB-435 melanoma) was 27000 nM, the GI50 (SF-268 CNS) was 7570 nM and the TGI (SF-268 CNS) was 38300 nM. The GI50 (SF-295 CNS) was 3720 nM, the TGI (SF-295 CNS) was 19900 nM and the GI50 (DU-145 prostate) was 5670 nM. For the same compound, the TGI (DU-145 prostate) was > 45100 nM, the GI50 (EKVX NSCLC) was 2970 nM and the TGI (EKVX NSCLC) was 31600 nM. It also gave a GI50 (IGROV1 ovarian) of 4450 nM, a TGI (IGROV1 ovarian) of 16700 nM and a GI50 (OVCAR-5 ovarian) of 5610 nM. The TGI (OVCAR-5 ovarian) was 29500 nM, the GI50 (HL-60(TB) leukemia) was 2240 nM and the TGI (HL-60(TB) leukemia) was 4940 nM. For the same compound, the GI50 (A549 NSCLC) was 4210 nM, the TGI (A549 NSCLC) was 36500 nM and the GI50 (TK-10 renal) was 7290 nM. For the same compound, the TGI (TK-10 renal) was 48200 nM, the GI50 (SN12C renal) was 4540 nM and the TGI (SN12C renal) was 16700 nM. For the same compound, the GI50 (M14 melanoma) was 4420 nM, the TGI (M14 melanoma) was 19200 nM and the GI50 (SK-MEL-2 melanoma) was 3840 nM. The TGI (SK-MEL-2 melanoma) was 16800 nM.
